Patent publication US9840515B2, “Protein kinase D inhibitors” (University of Pittsburgh—Of the Commonwealth System of …, priority 2010, dated 2017)
Structures can show the parent of a compound that is named as a salt. Where two headings read alike, the source gives them in different places.

Key:
[1] = molecular target: T1, purified recombinant human PKD1 (Homo sapiens, UniProt Q15139); assay: radiometric PKD kinase activity assay; type: biochemical
T1 sequence (Q15139 1-912): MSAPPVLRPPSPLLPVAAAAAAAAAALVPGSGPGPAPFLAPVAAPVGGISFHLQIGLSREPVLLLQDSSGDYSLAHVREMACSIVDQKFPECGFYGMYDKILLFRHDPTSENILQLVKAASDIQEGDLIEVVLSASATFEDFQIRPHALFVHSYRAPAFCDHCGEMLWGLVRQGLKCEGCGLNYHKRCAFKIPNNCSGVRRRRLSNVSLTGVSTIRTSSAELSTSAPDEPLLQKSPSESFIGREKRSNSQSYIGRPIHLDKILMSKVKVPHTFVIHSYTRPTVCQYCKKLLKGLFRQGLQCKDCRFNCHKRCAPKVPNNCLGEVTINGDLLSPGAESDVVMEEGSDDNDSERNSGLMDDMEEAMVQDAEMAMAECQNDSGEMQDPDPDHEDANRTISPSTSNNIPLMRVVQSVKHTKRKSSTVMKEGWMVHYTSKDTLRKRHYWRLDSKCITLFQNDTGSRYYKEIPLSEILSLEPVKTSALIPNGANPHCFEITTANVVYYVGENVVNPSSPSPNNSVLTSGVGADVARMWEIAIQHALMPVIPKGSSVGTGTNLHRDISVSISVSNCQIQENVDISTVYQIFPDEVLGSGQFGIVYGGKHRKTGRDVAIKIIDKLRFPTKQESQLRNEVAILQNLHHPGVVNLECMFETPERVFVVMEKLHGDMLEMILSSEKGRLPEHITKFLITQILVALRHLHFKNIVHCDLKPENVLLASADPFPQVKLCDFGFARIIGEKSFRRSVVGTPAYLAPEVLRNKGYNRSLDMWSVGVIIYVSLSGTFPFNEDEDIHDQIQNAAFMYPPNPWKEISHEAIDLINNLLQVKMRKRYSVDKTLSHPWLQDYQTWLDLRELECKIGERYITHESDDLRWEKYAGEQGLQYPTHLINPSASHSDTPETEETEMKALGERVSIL
Description: The radiometric PKD kinase assay was carried out by co-incubating 0.5 μCi γ-32P-ATP (PerkinElmer, Boston, Mass.), 20 μM ATP, 50 ng purified recombinant human PKD (PKD1, PKD2, PKD3) proteins, and 2.5 μg Syntide-2 (Sigma) in 50 μl kinase buffer that contains 50 mM Tris-HCl, pH 7.5, 4 mM MgCl2, 10 mM β-mercaptoethanol. The reaction was carried out under sub-saturation conditions, such that the initial rate was within linear kinetic range. The reaction mixture was incubated at 30° C. for 10 min, followed by spotting 25 μl of the mix onto a Whatman P81 filter paper (Whatman Inc, Clifton, N.J.). The filter papers were then washed three times in 0.5% phosphoric acid, air-dried, and counted using a Beckman LS6500 multi-purpose scintillation counter (Beckman, Fullerton, Calif.).

[2] = read-out: IC50 radiometric PKD1

SMILES | IC50 [1, 2] [µM] | melting point | also measured
CC(C)(C)[Si](C)(C)Oc1ccc2oc3c(c2c1)CCCNC3=O | – | 209 to 212 °C | –
CC(=O)Oc1ccc2oc3c(c2c1)CCCNC3=O [kb-NB123-36, 7-Acetoxy-2,3,4,5-tetrahydro-[1]benzoxolo[2,3-c]azepin-1-one] | – | 196 to 197 °C | –
CC(=O)Oc1ccc2oc3c(c2c1)CCCN(C(C)=O)C3=O [kb-NB123-45-1, 2-Acetyl-1-oxo-3H,4H,5H-azepino[5,6-d]benzo[b]furan-7-yl acetate] | – | 155 to 157 °C | –
NCCN1CCSc2c(sc3ccc(O)cc23)C1=O [kb-NB165-75, 2,3-Dihydro-4-(2-aminoethyl)-9-hydroxy-[1]benzothieno[2,3-f]-1,4-thiazepin-5-one] | 0.757 | 250 to 254 °C | –
Oc1ccc2oc3c(c2c1)CCCN1CCN=C31 [kb-NB165-15, 5H,6H,7H-Benzo[b]2-imidazolino[1′,2′-7,1]azepino[5,6-d]furan-9-ol] | – | 230 to 232 °C (dec.) | IC50 PKD1 ([1]; radiometric kinase activity assay, in vitro): No inhibition
Oc1ccc2sc3c(c2c1)SCCNC3 [kb-NB165-83, 2,3,4,5-Tetrahydro-9-hydroxy-[1]benzothieno[2,3-f]-1,4-thiazepine] | 16.4 | 182 to 184 °C (dec.) | –
COc1ccc2oc3c(c2c1)CCCNC3=O [kb-NB77-56, 7-Methoxy-2,3,4,5-tetrahydro-[1]benzoxolo[2,3-c]azepin-1-one] | – | 261 to 263 °C | –
CN1CCCc2c(oc3ccc(O)cc23)C1=O [kb-NB142-25, 7-Hydroxy-2-methyl-3,4,5-trihydro-[1]benzoxolo[2,3-c]azepin-1-one] | – | 282 to 284 °C | –
O=C1NCCSc2c1sc1ccc(N=C=S)cc21 [mcf292-05, 3,4-Dihydro-9-isothiocyanato-[1]benzothieno[2,3-f]-1,4-thiazepin-5(2H)-one] | 2.77 | 253 to 253.3 °C | –
COc1ccc2oc3c(c2c1)CCN(C)C3=O [kb-NB123-37, 6-Methoxy-2-methyl-2,3,4-trihydrobenzo[b]pyridino[4,3-d]furan-1-one] | – | 168 to 172 °C | –
C=CCOc1ccc2oc(=O)c3c(c2c1)CCCN3 [kb-NB77-83, 9-Allyloxy-1,2,3,4-tetrahydrochromeno[3,4-b]pyridin-5-one] | – | 90 to 91 °C | –
O=C1NCCc2c1oc1ccc(O)cc21 [kb-NB123-23A, 6-Hydroxy-2,3,4-trihydrobenzo[b]pyridino[4,3-d]furan-1-one] | – | 265 to 268 °C | –
O=c1oc2ccc(O)c(Cl)c2c2c1NCCC2 [kb-NB96-47-1, 10-Chloro-9-hydroxy-1,2,3,4-tetrahydrochromeno[3,4-b]pyridin-5-one] | – | 211 to 213 °C | –
O=C(OCc1ccccc1)N1CCCc2c1c(=O)oc1ccc(O)cc21 [kb-NB77-91, Phenylmethyl 9-hydroxy-5-oxo-1,2,3,4-tetrahydrochromeno[3,4-b]pyridine-4-carboxylate] | – | 235 to 237 °C | –
COc1ccc2sc3c(c2c1)SCCN(C)C3=O [kb-NB165-16, 2,3-Dihydro-4-Methyl-9-methoxy-[1]benzothieno[2,3-f]-1,4-thiazepin-5(2H)-one] | 4.57 ± 0.78 | 160 to 161 °C | –
COc1ccc2oc3c(c2c1)CCCN(C)C3=O [kb-NB96-04, 7-Methoxy-2-methyl-3H,4H,5H-azepino[5,6-d]benzo[b]furan-1-one] | – | 150 to 151 °C | –
CN1CCSc2c(sc3ccc(O)cc23)C1=O [kb-NB165-17, 2,3-Dihydro-4-methyl-9-hydroxy-[1]benzothieno[2,3-f]-1,4-thiazepin-5-one] | 0.45 ± 0.05 | 265 to 268 °C | –
CC(C)(C)[Si](C)(C)Oc1ccc2oc(=O)c3c(c2c1)CCCN3 | – | 117 to 119 °C | –
c1ccc(COc2ccc3sc4c(c3c2)SCCNC4)cc1 [kb-NB165-81, 2,3,4,5-Tetrahydro-9-benzyloxy-[1]benzothieno[2,3-f]-1,4-thiazepine] | 39.6 | 144 to 145 °C | –
O=C1NCCSc2c1sc1ccc(OCc3ccccc3)cc21 [kb-NB123-66, 3,4-Dihydro-9-benzyloxy-[1]benzothieno[2,3-f]-1,4-thiazepin-5(2H)-one] | – | 247 to 249 °C | –
C=CCOc1ccc2oc3c(c2c1)CCCNC3=O [kb-NB77-84, 7-Allyloxy-2,3,4,5-tetrahydro-[1]benzoxolo[2,3-c]azepin-1-one] | – | 198 to 200 °C | IC50 ([1]; radiometric kinase activity assay, in vitro, read-out: IC50 PKD1): 0.123 µM

Further lines, with some results ahead:

IC50 [1, 2] [µM] | melting point | SMILES | also measured
0.048 | 235 to 238 °C (dec.) | O=C1NCCSc2c1sc1ccc(O)c(Br)c21 [kb-NB184-52, 3,4-Dihydro-9-hydroxy-10-bromo-[1]benzothieno[2,3-f]-1,4-thiazepin-5(2H)-one] | –
3.17 | 198.6 to 199 °C | Nc1ccc2sc3c(c2c1)SCCNC3=O [mcf292-03, 3,4-Dihydro-9-amino-[1]benzothieno[2,3-f]-1,4-thiazepin-5(2H)-one] | –
– | 215 to 217 °C | COc1ccc2sc3c(c2c1)[S+]([O-])CCNC3=O (stereo not shown) [kb-NB184-45, 3,4-Dihydro-9-methoxy-1-oxide-[1]benzothieno[2,3-f]-1,4-thiazepin-5(2H)-one] | –
– | 269 to 272 °C (dec.) | O=C1NCCSc2c1sc1c(O)cccc21 [kb-NB184-40, 3,4-Dihydro-7-hydroxy-[1]benzothieno[2,3-f]-1,4-thiazepin-5(2H)-one] | –
– | 160 to 163 °C (dec.) | O=C1NCCSc2c1[s+]([O-])c1ccc(O)cc21 (stereo not shown) [kb-NB184-22, 3,4-Dihydro-9-hydroxy-6-oxide-[1]benzothieno[2,3-f]-1,4-thiazepin-5(2H)-one] | –
21.7 | 198 to 199 °C | O=C1NCCCSc2c1sc1ccc(OCc3ccccc3)cc21 [kb-NB165-89, 2,3,4,5-Tetrahydro-10-benzyloxybenzo[b]thieno[2,3-f]-1,5-thiazocin-6-one] | –
– | 288 °C (dec.) | COc1nc(OC)c2sc3c(c2n1)SCCNC3=O [kmg-NB5-13C, 2,4-Dimethoxy-7H,8H,9H-1,4-thiazepino[7′,6′-5,4]thiopheno[3,2-d]pyrimidin-6-one] | –
1.5 | 229 to 230 °C (dec.) | O=C(CCl)Nc1ccc2sc3c(c2c1)SCCNC3=O [mcf292-09, 3,4-Dihydro-9-(2-chloroacetamido)-[1]benzothieno[2,3-f]-1,4-thiazepin-5(2H)-one] | –
> 30 | 295 °C (dec.) | COc1nc(O)c2sc3c(c2n1)SCCNC3=O [kmg-NB5-15A, 4-Hydroxy-2-methoxy-7H,8H,9H-1,4-thiazepino[7′,6′-5,4]thiopheno[3,2-d]pyrimidin-6-one] | –
– | 116 to 120 °C | COC(=O)c1sc2ccc(OC)cc2c1NCCCO [kb-NB184-80, Methyl 3-(3-hydroxypropylamino)-5-methoxybenzo[b]thiophene-2-carboxylate] | IC50 radiometric PKD1 [1]: not inhibitory
– | 213 to 215 °C | O=C1NCCSc2c1sc1c(OCc3ccccc3)cccc21 [kb-NB184-38, 3,4-Dihydro-7-benzyloxy-[1]benzothieno[2,3-f]-1,4-thiazepin-5(2H)-one] | –
– | 220 to 224 °C | COc1cccc2c3c(sc12)C(=O)NCCS3 [kb-NB184-44, 3,4-Dihydro-7-methoxy-[1]benzothieno[2,3-f]-1,4-thiazepin-5(2H)-one] | –
1.08 | 284 to 287 °C | COc1ccc2c(c1)c1c([s+]2[O-])C(=O)NCCS1 (stereo not shown) [kb-NB184-25, 3,4-Dihydro-9-methoxy-6-oxide-[1]benzothieno[2,3-f]-1,4-thiazepin-5(2H)-one] | –
– | 335.9 °C (dec.) | O=C1NCCSc2c1sc1cnc(O)nc21 (as salt: hydrochloride) [kmg-NB4-69A, 2-Hydroxy-7H,8H,9H-1,4-thiazepino[7′,6′-5,4]thiopheno[3,2-d]pyrimidin-6-one] | –
– | 195 to 200 °C | O=C1NCCCOc2c1sc1ccc(OCc3ccccc3)cc21 [kb-NB184-36, 2,3,4,5-Tetrahydro-10-benzyloxybenzo[b]thieno[2,3-f]-1,5-oxazocin-6-one] | –
– | 233 to 237 °C | COc1ccc2sc3c(c2c1)OCCCNC3=O [kb-NB184-57, 2,3,4,5-Tetrahydro-10-methoxybenzo[b]thieno[2,3-f]-1,5-oxazocin-6-one] | –
